{"source": "patent US20160045440A1", "about": "“FORMULATION OF AMORPHOUS CALCIUM L-5-METHYLTETRAHYDROFOLATE (L-5-MTHF-Ca)” (CHEMO RESEARCH, S.L., priority 2013, published 2016)", "key": {"[1]": {"assay": "Stability of powder mixtures of amorphous calcium L-5-methylfolate with stabilizing agents (1:10) on storage", "format": "physicochemical", "conditions": "5° C. for one month; ALC:stabilizing agent 1:10", "procedure": "Powder mixtures of amorphous calcium L-5-methylfolate with each of the stabilizing agents disclosed in the following table were prepared. In all the cases, the mixture contained a weight amount of calcium L-5-methylfolate to stabilizing agent of 1:10."}, "[2]": {"assay": "Stability of amorphous calcium L-5-methylfolate and cysteine at weight ratios 1:0 to 1:33 on storage", "format": "physicochemical"}, "[3]": {"conditions": "storage time of one month at 40° C.; cited from earlier work"}}}
{"smiles": "CN1c2c(nc(N)[nH]c2=O)NC[C@@H]1CNc1ccc(C(=O)N[C@@H](CCC(=O)[O-])C(=O)[O-])cc1.[Ca+2]", "note": "[Amorphous Calcium L-5-methylfolate (ALC), N-{4-[[((6S)-2-amino-1,4,5,6,7,8-hexahydro-5-methyl-4-oxo-6-pteridinyl)methyl]amino]benzoyl}-L-glutamic acid, calcium salt]", "values": [{"measurement": "Assay (%) of Calcium L-5-methylfolate that remains in the mixture", "setting": "[1]", "result": 91.02, "unit": "%"}, {"measurement": "Related substances (%) D-Mefox", "setting": "[1]", "result": 0.50, "unit": "%"}, {"measurement": "Related substances (%) HO-MeTHFA", "setting": "[1]", "result": 1.18, "unit": "%"}, {"measurement": "Related substances (%) L-Mefox", "setting": "[1]", "result": 4.27, "unit": "%"}, {"measurement": "Related substances (%) TOTAL impurities", "setting": "[1]", "result": 8.0, "unit": "%"}, {"measurement": "Assay (%)", "setting": "[2]; 5° C. for 1 month", "result": 99.59, "unit": "%"}, {"measurement": "Related substances (%) D-Mefox", "setting": "[2]; 5° C. for 1 month", "result": 0.42, "unit": "%"}, {"measurement": "Related substances (%) HO-MeTHFA", "setting": "[2]; 5° C. for 1 month", "result": 1.80, "unit": "%"}, {"measurement": "Related substances (%) L-Mefox", "setting": "[2]; 5° C. for 1 month", "result": 2.52, "unit": "%"}, {"measurement": "Related substances (%) TOTAL impurities", "setting": "[2]; 5° C. for 1 month", "result": 5.59, "unit": "%"}, {"measurement": "Assay (%)", "setting": "[2]; 5° C. for 3 months", "result": 96.39, "unit": "%"}, {"measurement": "Related substances (%) D-Mefox", "setting": "[2]; 5° C. for 3 months", "result": 0.32, "unit": "%"}, {"measurement": "Related substances (%) HO-MeTHFA", "setting": "[2]; 5° C. for 3 months", "result": 1.34, "unit": "%"}, {"measurement": "Related substances (%) L-Mefox", "setting": "[2]; 5° C. for 3 months", "result": 2.74, "unit": "%"}, {"measurement": "Related substances (%) TOTAL impurities", "setting": "[2]; 5° C. for 3 months", "result": 5.74, "unit": "%"}, {"measurement": "Assay (%)", "setting": "[2]; 25° C./60% HR for 1 month", "result": 89.13, "unit": "%"}, {"measurement": "Related substances (%) D-Mefox", "setting": "[2]; 25° C./60% HR for 1 month", "result": 0.71, "unit": "%"}, {"measurement": "Related substances (%) HO-MeTHFA", "setting": "[2]; 25° C./60% HR for 1 month", "result": 1.75, "unit": "%"}, {"measurement": "Related substances (%) L-Mefox", "setting": "[2]; 25° C./60% HR for 1 month", "result": 4.68, "unit": "%"}, {"measurement": "Related substances (%) TOTAL impurities", "setting": "[2]; 25° C./60% HR for 1 month", "result": 9.19, "unit": "%"}, {"measurement": "Assay (%)", "setting": "[2]; 25° C./60% HR for 3 months", "result": 84.03, "unit": "%"}, {"measurement": "Related substances (%) D-Mefox", "setting": "[2]; 25° C./60% HR for 3 months", "result": 0.57, "unit": "%"}, {"measurement": "Related substances (%) HO-MeTHFA", "setting": "[2]; 25° C./60% HR for 3 months", "result": 1.44, "unit": "%"}, {"measurement": "Related substances (%) L-Mefox", "setting": "[2]; 25° C./60% HR for 3 months", "result": 6.49, "unit": "%"}, {"measurement": "Related substances (%) TOTAL impurities", "setting": "[2]; 25° C./60% HR for 3 months", "result": 11.95, "unit": "%"}, {"measurement": "Assay (%)", "setting": "[2]; 40° C./75% HR for 1 month", "result": 81.95, "unit": "%"}, {"measurement": "Related substances (%) D-Mefox", "setting": "[2]; 40° C./75% HR for 1 month", "result": 0.93, "unit": "%"}, {"measurement": "Related substances (%) HO-MeTHFA", "setting": "[2]; 40° C./75% HR for 1 month", "result": 1.84, "unit": "%"}, {"measurement": "Related substances (%) L-Mefox", "setting": "[2]; 40° C./75% HR for 1 month", "result": 8.97, "unit": "%"}, {"measurement": "Related substances (%) TOTAL impurities", "setting": "[2]; 40° C./75% HR for 1 month", "result": 15.57, "unit": "%"}]}
{"smiles": "CN1c2c(nc(N)[nH]c2=O)NC[C@@H]1CNc1ccc(C(=O)N[C@@H](CCC(=O)[O-])C(=O)[O-])cc1.[Ca+2]", "note": "[Metafolin, Calcium L-5-methylfolate]", "values": [{"measurement": "Metafolin that remains in the compositions obtained by granulation", "setting": "[3]", "result": 60, "unit": "%"}]}
